Non-standard residues stand in square brackets, D forms with d. Residues, ends and D or L forms follow the SMILES beside them. Ac5c = NC1(C(=O)O)CCCC1; Ahx = NCCCCCC(=O)O; Sar = CNCC(=O)O

This experiment has as its target Furin (Homo sapiens, UniProt P09958).

Furin, sequence (P09958 whole entry): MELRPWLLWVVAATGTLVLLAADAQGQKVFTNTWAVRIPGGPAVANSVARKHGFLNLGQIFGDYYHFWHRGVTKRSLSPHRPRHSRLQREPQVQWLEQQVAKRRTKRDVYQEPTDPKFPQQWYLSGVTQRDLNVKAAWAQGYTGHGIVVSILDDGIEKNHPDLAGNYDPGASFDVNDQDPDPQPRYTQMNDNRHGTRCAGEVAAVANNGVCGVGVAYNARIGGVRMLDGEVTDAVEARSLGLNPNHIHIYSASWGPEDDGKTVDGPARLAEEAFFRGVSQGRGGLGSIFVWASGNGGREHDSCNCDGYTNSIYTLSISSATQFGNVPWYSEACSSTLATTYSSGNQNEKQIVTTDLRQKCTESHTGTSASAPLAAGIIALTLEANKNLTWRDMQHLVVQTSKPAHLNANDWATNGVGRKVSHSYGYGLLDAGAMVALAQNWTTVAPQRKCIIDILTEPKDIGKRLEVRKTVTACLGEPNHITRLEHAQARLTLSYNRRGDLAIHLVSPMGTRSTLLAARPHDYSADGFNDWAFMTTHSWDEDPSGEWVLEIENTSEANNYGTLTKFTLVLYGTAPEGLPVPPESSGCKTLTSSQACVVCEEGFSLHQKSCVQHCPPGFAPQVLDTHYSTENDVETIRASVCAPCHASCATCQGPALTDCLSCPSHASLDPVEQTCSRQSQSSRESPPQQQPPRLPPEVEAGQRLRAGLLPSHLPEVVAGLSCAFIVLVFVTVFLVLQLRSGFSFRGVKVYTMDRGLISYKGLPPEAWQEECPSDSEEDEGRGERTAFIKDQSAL

In general, Ki refers to a dissociation constant, usually derived from enzyme kinetics or from competition with a known ligand. As to H-TPRHRRRKKRG-OH, the Ki was > 100 nM.
Regarding `C[C@@H](O)[C@H](N)C(=O)N1CCC[C@H]1C(=O)N[C@@H](CCC(N)=O)C(=O)N[C@@H](CCCN=C(N)N)C(=O)N[C@H](CCCCN)C(=O)N[C@@H](CCCN=C(N)N)C(=O)N[C@@H](CCCN=C(N)N)C(=O)N[C@@H](CCCN=C(N)N)C(=O)N[C@@H](CCCCN)C(=O)N[C@@H](CCCCN)C(=O)N[C@@H](CCCNC(=N)N)C(=O)NCC(=O)O`, the Ki was > 100 nM.
The same measure for H-TPRARRRKKRR-NH2: > 100 nM; for H-GGGTPRARRRKKRF-OH: 67 nM.
Consider `C[C@@H](O)[C@H](N)C(=O)N1CCC[C@H]1C(=O)N[C@@H](CCC(N)=O)C(=O)N[C@@H](CCCNC(=N)N)C(=O)N[C@@H](CCCNC(N)=O)C(=O)N[C@@H](CCCNC(=N)N)C(=O)N[C@@H](CCCNC(=N)N)C(=O)N[C@@H](CCCNC(=N)N)C(=O)N[C@@H](CCCCN)C(=O)N[C@@H](CCCCN)C(=O)N[C@@H](CCCNC(=N)N)C(=O)NCC(=O)O`, for which the Ki is > 100 nM.
As to `C[C@@H](O)[C@H](N)C(=O)N1CCC[C@H]1C(=O)N[C@@H](CCCN=C(N)N)C(=O)N[C@@H](CCCCN)C(=O)N[C@@H](CCCN=C(N)N)C(=O)N[C@@H](CCCN=C(N)N)C(=O)N[C@@H](CCCN=C(N)N)C(=O)N[C@@H](CCCCN)C(=O)N[C@@H](CCCCN)C(=O)N[C@@H](CCCN=C(N)N)C(=O)NCC(N)=O`, the Ki was > 100 nM.
Consider H-TPRFRRRKKRG-NH2, for which the Ki was > 100 nM.
With H-TPRERRRKAAV-OH, the Ki is > 100 nM.
The same measure for `C[C@@H](O)[C@H](N)C(=O)N1CCC[C@H]1C(=O)N[C@@H](CCC(N)=O)C(=O)N[C@@H](CCCN=C(N)N)C(=O)N[C@@H](CC1CCCCC1)C(=O)N[C@@H](CCCN=C(N)N)C(=O)N[C@@H](CCCN=C(N)N)C(=O)N[C@@H](CCCN=C(N)N)C(=O)N[C@@H](CCCCN)C(=O)N[C@@H](CCCCN)C(=O)N[C@@H](CCCNC(=N)N)C(=O)NCC(=O)O`: > 100 nM.
The molecule H-GAGAGATPRARRRKKRY-OH showed a Ki of 57 nM. This counts as double-digit nanomolar.
To H-TPQRVRRRKKRG-OH belongs > 100 nM.
In the case of H-TPRSRRRKKRG-OH, the Ki is > 100 nM.
The same measure for H-TPQRNRRRKKRG-OH: > 100 nM; for H-TPRDRRRKKRG-NH2: > 100 nM; for H-TPQRIRRRKKRG-OH: > 100 nM.
The same measure for `C[C@@H](O)[C@H](N)C(=O)N1CCC[C@H]1C(=O)N[C@@H](CCCN=C(N)N)C(=O)N[C@@H](CCCCN)C(=O)N[C@@H](CCCN=C(N)N)C(=O)N[C@@H](CCCN=C(N)N)C(=O)N[C@@H](CCCN=C(N)N)C(=O)N[C@@H](CCCCN)C(=O)N[C@@H](CCCCN)C(=O)N[C@@H](CCCN=C(N)N)C(=O)NCC(=O)O`: > 100 nM; for H-TPRGRRRKKRG-OH: > 100 nM.
Take H-TARERRRKKR-OH: the Ki was > 100 nM.
To H-TPRVRRRKKRG-NH2 belongs > 100 nM; to H-TPRARRRKKRN-NH2, 45 nM; to `C[C@H](NC(=O)[C@H](CCCNC(=N)N)NC(=O)[C@H](CCC(N)=O)NC(=O)[C@@H]1CCCN1C(=O)[C@@H](N)[C@@H](C)O)C(=O)N[C@@H](CCCNC(=N)N)C(=O)N[C@@H](CCCNC(=N)N)C(=O)N[C@@H](CCCNC(=N)N)C(=O)N[C@@H](CCCCN)C(=O)N[C@@H](CCCCN)C(=O)N[C@@H](CCCNC(=N)N)C(=O)NCCCCCC(=O)O` (H-TPQRARRRKKR[Ahx]-OH), > 100 nM.
To H-TPREAARKKR-OH belongs > 100 nM; to H-GAGAGATPRARRRKKRF-OH, 56 nM; to H-TPAAARRKKR-OH, > 100 nM.
Consider `C[C@H](NC(=O)[C@H](CCCCN)NC(=O)[C@H](CCCCN)NC(=O)[C@H](CCCN=C(N)N)NC(=O)[C@H](CCCN=C(N)N)NC(=O)[C@H](CCCN=C(N)N)NC(=O)[C@H](CCC(=O)O)NC(=O)[C@H](CCCN=C(N)N)NC(=O)[C@@H]1CCCN1C(=O)[C@@H](N)[C@@H](C)O)C(=O)N(C)CC(=O)O` (H-TPRERRRKKA[Sar]-OH), for which the Ki was > 100 nM.
The same measure for H-TPQRSRRRKKRG-OH: > 100 nM; for `C[C@H](NC(=O)[C@H](CCCN=C(N)N)NC(=O)[C@H](CCC(N)=O)NC(=O)[C@@H]1CCCN1C(=O)[C@@H](N)[C@@H](C)O)C(=O)N[C@@H](CCCN=C(N)N)C(=O)N[C@@H](CCCN=C(N)N)C(=O)N[C@@H](CCCN=C(N)N)C(=O)N[C@@H](CCCCN)C(=O)N[C@@H](CCCCN)C(=O)N[C@@H](CCCNC(N)=O)C(=O)NCC(=O)O`: > 100 nM; for H-TPRERAAKKR-OH: > 100 nM.
The same measure for H-TPRTRRRKKRG-NH2: > 100 nM; for H-TPQRARRRKKRL-OH: > 100 nM; for H-TPRIRRRKKRG-OH: > 100 nM.
The same measure for `C[C@H](NC(=O)[C@H](CCCN=C(N)N)NC(=O)[C@@H]1CCCN1C(=O)[C@@H](N)[C@@H](C)O)C(=O)N[C@@H](CCCN=C(N)N)C(=O)N[C@@H](CCCN=C(N)N)C(=O)N[C@@H](CCCN=C(N)N)C(=O)N[C@@H](CCCCN)C(=O)N[C@@H](CCCCN)C(=O)N[C@@H](CCCN=C(N)N)C(=O)O`: 138 nM; for `C[C@H](NC(=O)[C@H](C)NC(=O)[C@H](CCCNC(=N)N)NC(=O)[C@H](CCC(=O)O)NC(=O)[C@H](CCCNC(=N)N)NC(=O)[C@@H]1CCCN1C(=O)[C@@H](N)[C@@H](C)O)C(=O)N[C@@H](CCCCN)C(=O)N[C@@H](CCCCN)C(=O)N[C@@H](CCCNC(=N)N)C(=O)N(C)CC(=O)O` (H-TPRERAAKKR[Sar]-OH): > 100 nM.
Consider H-TPQRDRRRKKRG-OH, for which the Ki was > 100 nM.
Regarding H-TPRERRRKARG-OH, the Ki was > 100 nM.
On to H-AARERRRKKRV-OH, for which the Ki is > 100 nM.
H-GGGTPRARRRKKRT-OH: the Ki is 39 nM.
On to H-TPRERRRAKRG-OH, for which the inhibitory constant (Ki) was > 100 nM.
The same measure for H-TPRHRRRKKRG-NH2: > 100 nM; for H-TPREARRKKR-OH: > 100 nM.
Consider H-TPRFRRRKKRG-OH, for which the Ki was > 100 nM.
The same measure for H-TPRERRRKKR-OH: > 100 nM; for `C[C@@H](O)[C@H](N)C(=O)N1CCC[C@H]1C(=O)N[C@@H](CCC(N)=O)C(=O)N[C@@H](CCCN=C(N)N)C(=O)N[C@H](CCC(=O)O)C(=O)N[C@@H](CCCN=C(N)N)C(=O)N[C@@H](CCCN=C(N)N)C(=O)N[C@@H](CCCN=C(N)N)C(=O)N[C@@H](CCCCN)C(=O)N[C@@H](CCCCN)C(=O)N[C@@H](CCCNC(=N)N)C(=O)NCC(=O)O`: > 100 nM.
For the molecule H-TPRGRRRKKRG-NH2, the Ki is > 100 nM.
The same measure for H-TPQRARRRKKRV-OH: 48 nM.
For H-TPQRGRRRKKRG-OH, the Ki is > 100 nM.
Consider H-TPRLRRRKKRG-NH2, for which the inhibitory constant (Ki) is > 100 nM.
To H-TPRERRRKKAG-NH2 belongs > 100 nM; to H-TPRLRRRKKRG-OH, > 100 nM.
H-APRERRRKKR-OH: the Ki is > 100 nM.
To H-GGGGGGTPRARRRKKRT-OH belongs 66 nM.
`CCCC[C@H](NC(=O)[C@H](CCCNC(=N)N)NC(=O)[C@H](CCCCN)NC(=O)[C@H](CCCCN)NC(=O)[C@H](CCCNC(=N)N)NC(=O)[C@H](CCCNC(=N)N)NC(=O)[C@H](CCCNC(=N)N)NC(=O)[C@H](C)NC(=O)[C@H](CCCNC(=N)N)NC(=O)[C@@H]1CCCN1C(=O)[C@@H](N)[C@@H](C)O)C(=O)O`: the affinity corresponds to a Ki of 81 nM.
To H-AAAERRRKKRV-OH belongs > 100 nM.
With H-TPRARRRKKRA-NH2, the Ki was > 100 nM.
As to `C[C@H](NC(=O)[C@@H](N)[C@@H](C)O)C(=O)N[C@@H](CCCNC(=N)N)C(=O)N[C@@H](CCC(=O)O)C(=O)N[C@@H](CCCNC(=N)N)C(=O)N[C@@H](CCCNC(=N)N)C(=O)N[C@@H](CCCNC(=N)N)C(=O)N[C@@H](CCCCN)C(=O)N[C@@H](CCCCN)C(=O)N[C@@H](CCCNC(=N)N)C(=O)N(C)CC(=O)O` (H-TARERRRKKR[Sar]-OH), the Ki is > 100 nM.
To H-TPRARRRKKRH-NH2 belongs > 100 nM; to `C[C@H](NC(=O)[C@H](CCCNC(=N)N)NC(=O)[C@H](CCC(N)=O)NC(=O)[C@@H]1CCCN1C(=O)[C@@H](N)[C@@H](C)O)C(=O)N[C@@H](CCCNC(=N)N)C(=O)N[C@@H](CCCNC(=N)N)C(=O)N[C@@H](CCCNC(=N)N)C(=O)N[C@@H](CCCCN)C(=O)N[C@@H](CCCCN)C(=O)N[C@@H](CCCNC(=N)N)C(=O)NC1(C(=O)O)CCCC1` (H-TPQRARRRKKR[Ac5c]-OH), > 100 nM.
The molecule `CSC[C@H](NC(=O)[C@H](CCCN=C(N)N)NC(=O)[C@H](CCCCN)NC(=O)[C@H](CCCCN)NC(=O)[C@H](CCCN=C(N)N)NC(=O)[C@H](CCCN=C(N)N)NC(=O)[C@H](CCCN=C(N)N)NC(=O)[C@H](C)NC(=O)[C@H](CCCN=C(N)N)NC(=O)[C@@H]1CCCN1C(=O)[C@@H](N)[C@@H](C)O)C(=O)O` showed a Ki of 65 nM.
The same measure for H-TPRARRRKKRD-OH: 56 nM.
The same measure for H-TPRARRRKKRP-OH: > 100 nM; for `C[C@@H](O)[C@H](N)C(=O)N1CCC[C@H]1C(=O)N[C@@H](CCC(N)=O)C(=O)N[C@@H](CCCN=C(N)N)C(=O)NC1(C(=O)N[C@@H](CCCN=C(N)N)C(=O)N[C@@H](CCCN=C(N)N)C(=O)N[C@@H](CCCN=C(N)N)C(=O)N[C@@H](CCCCN)C(=O)N[C@@H](CCCCN)C(=O)N[C@@H](CCCNC(=N)N)C(=O)NCC(=O)O)CCCC1`: > 100 nM; for H-TPRCRRRKKRG-NH2: > 100 nM.
Regarding H-TPRERRRKARV-OH, the Ki was > 100 nM.
Regarding H-TPRARRRKKRE-OH, the Ki is > 100 nM.
The same measure for `C[C@@H](O)[C@H](N)C(=O)N1CCC[C@H]1C(=O)N[C@@H](CCCN=C(N)N)C(=O)NC1(C(=O)N[C@@H](CCCN=C(N)N)C(=O)N[C@@H](CCCN=C(N)N)C(=O)N[C@@H](CCCN=C(N)N)C(=O)N[C@@H](CCCCN)C(=O)N[C@@H](CCCCN)C(=O)N[C@@H](CCCN=C(N)N)C(=O)NCC(=O)O)CCCC1`: > 100 nM.
Take H-TPRARRRKKRP-NH2: the Ki was > 100 nM.
With `C[C@H](NC(=O)[C@H](CCCNC(=N)N)NC(=O)[C@H](CCCNC(=N)N)NC(=O)[C@H](CCCNC(=N)N)NC(=O)[C@H](CCC(=O)O)NC(=O)[C@H](CCCNC(=N)N)NC(=O)[C@@H]1CCCN1C(=O)[C@@H](N)[C@@H](C)O)C(=O)N[C@@H](CCCCN)C(=O)N[C@@H](CCCNC(=N)N)C(=O)N(C)CC(=O)O` (H-TPRERRRAKR[Sar]-OH), the inhibitory constant (Ki) was > 100 nM.
To H-TPRARRRKKRV-OH belongs 80 nM; to H-TPRARRRKKRS-NH2, > 100 nM.

For the origin of these results see ChEMBL document CHEMBL1156471, “Targeting host cell furin proprotein convertases as a therapeutic strategy against bacterial toxins and viral pathogens” (J Biol Chem, 2007).
